# Measurements from patent US20190119348A1, “PARATHYROID HORMONE RECEPTOR 1 ANTAGONIST AND INVERSE AGONIST POLYPEPTIDES AND METHODS OF THEIR USE” (The General Hospital Corporation, priority 2016, published 2019).
# Where a SMILES comes first, the peptide text is derived from it. [ ]: non-standard residue; d: D form.
# Tests used:
# PTHR1 [1] = target: T1, PTHR1 (Homo sapiens, UniProt Q03431); experiment: Residual agonist activity, cAMP luminescence in GP-2.3 cells; type: cell-based; settings: ligands applied directly to GP-2.3 cells
# T1 construct: expressed in transfected cells; host or cells: GP-2.3 (HEK-293 stably transfected with hPTHR1 and GloSensor)
# T1 sequence (Q03431 27-593): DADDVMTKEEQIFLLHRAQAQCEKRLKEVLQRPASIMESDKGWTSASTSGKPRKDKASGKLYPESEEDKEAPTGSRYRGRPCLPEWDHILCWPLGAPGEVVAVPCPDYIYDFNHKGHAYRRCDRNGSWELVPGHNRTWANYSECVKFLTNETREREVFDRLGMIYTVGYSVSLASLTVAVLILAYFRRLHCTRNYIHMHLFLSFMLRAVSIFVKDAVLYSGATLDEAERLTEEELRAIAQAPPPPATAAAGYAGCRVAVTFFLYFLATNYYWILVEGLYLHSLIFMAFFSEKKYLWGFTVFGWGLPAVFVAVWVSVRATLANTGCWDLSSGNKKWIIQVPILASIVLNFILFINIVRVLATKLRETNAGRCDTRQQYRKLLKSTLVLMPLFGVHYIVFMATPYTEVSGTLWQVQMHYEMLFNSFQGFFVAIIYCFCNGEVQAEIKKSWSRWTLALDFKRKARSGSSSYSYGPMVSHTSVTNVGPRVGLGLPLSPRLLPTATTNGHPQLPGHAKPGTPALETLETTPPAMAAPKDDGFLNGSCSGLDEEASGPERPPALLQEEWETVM
# Experimental: cAMP signaling was assessed in the HEK293-derived or SaOS2-derived cell lines stably expressing the luciferase-based GloSensor™ cAMP reporter (Hattersley et al., Paper presented at: Novel Signaling Mechanisms and Bone Cell Biology 2014; Binkowski et al., Methods in molecular biology. 756:263-271). HEK-293 cells were further transfected to stably express the hPTHR1, hPTHR1-H223R, or hPTHR1-T410P. The cells were seeded into 96-well white plates and were assayed 24 to 48 hours post-confluency. Assays were performed at room temperature in CO2-independent culture media (Life Technologies, Corp., Carlsbad, Calif.) containing 0.1% BSA (CIDB). The cells were pre-loaded with luciferin (0.5 mM in CIDB) for 15 minutes, then PTH peptides were added at varying concentrations. cAMP-dependent luminescence was measured at two-minute intervals using a PerkinElmer Envision plate reader. The time at which maximum luminescence (cps) observed with agonist alone, typically at 10-20 minutes after agonist addition, was used to obtain data from wells containing antagonist with or without agonist, to thus generate antagonist ligand dose-response curves. The resulting cps values were then plotted against ligand concentration using GraphPad Prism 7.0 software and a four-parameter logistics curve fitting equation, which yielded parameters of inhibitory potency (pIC50).
# wild-type PTHR = target: T2, wild-type PTHR (Mus musculus, UniProt P41593); experiment: Mouse transient model of hyperparathyroidism (PEG-PTH(1-35)-induced hypercalcemia), blood Ca2+; type: in vivo; settings: 10-week old female CD1 mice; PEG-PTH(1-35)-1925 50 nmol/kg i.v. at −24 h; peptide 500 nmol/kg at 0 h; P<0.05 vs vehicle at 2 h
# T2 construct: Wild-type mice were injected with a PTH agonist analog; from tissue; host or cells: whole animal, wild-type mice (C57BL/6J per methods)
# T2 sequence (P41593 27-591): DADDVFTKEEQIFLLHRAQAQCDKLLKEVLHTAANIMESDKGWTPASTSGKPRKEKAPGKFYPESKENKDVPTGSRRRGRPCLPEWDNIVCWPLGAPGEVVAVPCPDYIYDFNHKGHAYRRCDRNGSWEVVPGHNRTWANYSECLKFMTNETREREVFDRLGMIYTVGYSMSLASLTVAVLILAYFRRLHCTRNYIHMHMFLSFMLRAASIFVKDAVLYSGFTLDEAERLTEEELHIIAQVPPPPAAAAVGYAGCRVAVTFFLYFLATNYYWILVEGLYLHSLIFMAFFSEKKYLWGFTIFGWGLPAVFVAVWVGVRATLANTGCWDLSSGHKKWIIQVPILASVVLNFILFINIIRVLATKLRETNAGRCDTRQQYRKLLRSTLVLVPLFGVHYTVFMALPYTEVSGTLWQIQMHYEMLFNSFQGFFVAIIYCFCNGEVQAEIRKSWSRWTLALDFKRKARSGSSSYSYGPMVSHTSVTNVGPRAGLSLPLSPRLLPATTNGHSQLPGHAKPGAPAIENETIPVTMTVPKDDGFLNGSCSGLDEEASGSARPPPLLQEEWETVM
# Experimental: (§1) Mice were injected IV via the tail vein or subcutaneously with ligands in vehicle (0.05% Tween80; 10 mM citrate; 150 mM NaCl; pH 5.0) to give the intended final ligand dose (e.g. 50 nmol/kg body weight). At times immediately before (t=0) and after injection, tail vein blood was collected and analyzed for blood ionized calcium (Ca^2+) measured with a RAPIDLAB 348 analyzer (SIEMENS Healthcare Diagnostic, United Kingdom).
# To study antagonism at the wild-type PTHR under conditions of excess PTH, as occurs in humans with hyperparathyroidism, we developed a mouse non-genetic, transient model of hyperparathyroidism. Wild-type mice were injected with a PTH agonist analog, PEG-PTH(1-35), which induces hypercalcemia lasting between 24 and 72 hours after a single s.c. injection (see Guo et al., Journal of Bone and Mineral Research, 32:86-98, 2017). Antagonists were injected after 24 hours following the injection of PEG-PTH(1-35) and effects on blood Ca^2+ levels were measured. The results are illustrated in FIGS. 12A and 12B.
# PTHR1 [2] = target: T3, PTHR1 (Mus musculus, UniProt P41593); experiment: Blood Ca2+ in wild-type mice after co-injection with PTH(1-34); type: in vivo; set-up: from tissue; host or cells: whole animal, wild-type mice (C57BL/6J per methods); settings: intravenous co-injection with PTH(1-34)
# T3 sequence (P41593 27-591): T2 sequence (P41593 27-591)
# Description: Wilde-type, ca. 10-week old male C57BL/6J mice were purchased from the Charles River Laboratories (Wilmington, Mass., USA). The origin and method of breeding of Col1-H223R “Jansen's” transgenic mice is described by Calvi et al. (J. Clin. Invest., 107:277-286, 2001). Mice were maintained in facilities operated by the Center for Comparative Research of the Massachusetts General Hospital, and acclimated in the facilities for seven days prior to being used for study. All experimental procedures were approved by the MGH Institutional Animal Care and Use Committee (IACUC). In each study, animals were assigned randomly to treatment groups. Where possible, power calculations established that the number of animals used per study group was sufficient to detect statistically significant differences in intended primary experimental outcomes (i.e., changes in serum Ca and Pi).
# as §1
smiles,measurement,setting,value
"CC[C@H](C)[C@H](N)C(=O)N[C@@H](CCC(N)=O)C(=O)N[C@@H](CC(C)C)C(=O)N[C@@H](CCSC)C(=O)N[C@@H](Cc1c[nH]cn1)C(=O)N[C@@H](CCC(N)=O)C(=O)N[C@@H](CCCNC(=N)N)C(=O)N[C@H](Cc1c[nH]c2ccccc12)C(=O)N[C@@H](CCCCN)C(=O)N[C@@H](Cc1c[nH]c2ccccc12)C(=O)N[C@H](C(=O)N[C@@H](CCC(N)=O)C(=O)N[C@@H](CC(=O)O)C(=O)N[C@@H](C)C(=O)N[C@@H](CCCNC(=N)N)C(=O)N[C@@H](CCCNC(=N)N)C(=O)N[C@@H](CCCNC(=N)N)C(=O)N[C@@H](C)C(=O)N[C@@H](Cc1c[nH]c2ccccc12)C(=O)N[C@@H](CC(C)C)C(=O)N[C@@H](Cc1c[nH]cn1)C(=O)N[C@@H](CCCCN)C(=O)N[C@@H](CC(C)C)C(=O)N[C@H](C(=O)N[C@@H](C)C(=O)N[C@@H](CCC(=O)O)C(=O)N[C@H](C(=O)N[C@@H](Cc1c[nH]cn1)C(=O)N[C@H](C(=O)N[C@@H](C)C(=O)N[C@@H](CCC(=O)O)C(=O)N[C@H](C(N)=O)[C@@H](C)CC)[C@@H](C)O)[C@@H](C)CC)[C@@H](C)CC)[C@@H](C)CC [compound 1949, dW12, W23-LA-PTH(5-36)] (H-IQLMHQR[dW]KWIQDARRRAWLHKLIAEIHTAEI-NH2; N-terminus assumed)",residual agonist activity compared with dTrp^12-PTH(7-34)-1894,PTHR1 [1],less residual agonist activity
same,effect on blood Ca^2+ (FIG. 12A),wild-type PTHR,reduced blood Ca^2+
same,effect on calcemic response to PTH(1-34) (FIG. 11),PTHR1 [2],inhibited the capacity of the injected PTH(1-34) agonist to induce a calcemic response
